From EP4745118A1, “HYDROXAMIC ACID COMPOUND OR PHARMACEUTICALLY ACCEPTABLE SALT THEREOF, AND USE THEREOF AND PREPARATION METHOD THEREFOR” (priority 2023, dated 2025)
Values after ≈ are worked out from the molar mass of the structure shown. Where two headings read alike, the source gives them in different places.

Experiments:
[1] = tested on: Escherichia coli ATCC BAA2469 (CRE, NDM-1-producing); assay: In vivo antibacterial activity, intraperitoneal infection in mice (survival over 7 days); conditions: for effective dose of in vivo antibacterial activity: mice with intraperitoneal infection by Escherichia coli ATCC BAA2469, intravenous; for Animal survival rate / Number of surviving animals: mice, one intravenous administration 1 hour post-infection, 7 days; for Number of surviving animals: 5 animals per group
Experimental: Mice were randomly grouped based on body weight, with 5 mice in each group, regardless of gender. The infectious bacteria was Escherichia coli ATCC BAA2469 (CRE, NDM-1-producing). The test bacterial solution was diluted with 5% high-activity dry yeast. Mice received intraperitoneal injection of 0.5 mL of 100% minimum lethal dose (100% MLD) bacterial solution. One intravenous administration was given at 1 hour post-infection at a dose volume of 10 mL/kg. Animal survival numbers were observed over 7 days, and survival rates were calculated.

Vero cells = assay: Vero cytotoxicity (CCK-8); type: cell-based
Experimental: All liquid was transferred to a 15 mL centrifuge tube and centrifuged at 800 rpm for 5 min. […] A cell counter was used to measure cell density. Cells were inoculated at 100 µL and a density of 3 × 10^5/mL into a 96-well plate, with 6 replicates per group, and incubated at 37°C for 4 hours to allow cells to adhere to the wall. The compound was twofold continuously diluted with PBS, and 10 µL of the compound with the corresponding concentration was added to the 96-well plate, and shaken and mixed well on a shaker, and then incubated at 37°C for 24 hours. 10 µL of CCK-8 reagent was added to the 96-well plate, mixed thoroughly on a shaker, and incubated at 37°C for 2 hours. A microplate reader was used to measure the absorbance at 450 nm wavelength, and the inhibition rate of the compound on Vero cells was calculated. Table 5 Vero cytotoxicity of 4 optical isomers and control drug

Enterobacter cloacae = assay: In vitro antibacterial activity, agar dilution method (MIC); type: cell-based
Experimental: According to the relevant operating procedures of the Clinical Laboratory Standards Institute (CLSI) in the United States, an antimicrobial susceptibility testing was conducted using the agar dilution method. […] The agar was allowed to solidify and set aside for later use.
The test bacteria were propagated in broth and adjusted to a turbidity of 0.5 McFarland (approximately 1-2 × 10^8 CFU/mL) using a turbidimeter before inoculation. The 0.5 McFarland bacterial solution was then diluted 10-fold in broth (approximately 1-2 × 10^7 CFU/mL). A multipoint inoculator was used to inoculate the above bacterial solution onto a series of plates containing different concentrations of drugs (with an inoculation amount of approximately 10^4 CFU per inoculation site). After incubation at a constant temperature of 35°C for 18 hours, results were observed. The minimum concentration of drugs contained in sterile growth plates was determined as the Minimal Inhibitory Concentration (MIC).

[2] = target: T1, recombinant Escherichia coli LpxC enzyme (rLpxC) (Escherichia coli, UniProt P0A725); assay: Inhibition of recombinant Escherichia coli LpxC enzyme activity (LC-MS); type: biochemical; conditions: 37°C, 30 minutes reaction, substrate UDP-3-O (R-hydroxytetradecanoyl)-N-acetylglucosamine
T1 sequence (P0A725 1-305): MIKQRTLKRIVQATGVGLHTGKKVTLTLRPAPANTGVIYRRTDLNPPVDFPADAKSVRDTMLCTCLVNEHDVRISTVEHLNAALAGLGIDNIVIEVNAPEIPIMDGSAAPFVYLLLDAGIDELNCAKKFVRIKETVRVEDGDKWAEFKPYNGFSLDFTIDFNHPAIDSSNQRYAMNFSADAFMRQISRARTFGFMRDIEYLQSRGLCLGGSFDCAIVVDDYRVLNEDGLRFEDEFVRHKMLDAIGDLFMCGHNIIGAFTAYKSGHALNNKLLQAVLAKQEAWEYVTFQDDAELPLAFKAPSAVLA
Experimental: Preparation of recombinant Escherichia coli LpxC enzyme (rLpxC). 2 µL of recombinant Escherichia coli LpxC enzyme (6.29 mg/mL) was added to 18 µL of distilled water. After thorough mixing, 2 µL of this mixture was added to 1042.4 µL of distilled water and mixed well to prepare a 36 nM working solution.
The substrate was UDP-3-O (R-hydroxytetradecanoyl)-N-acetylglucosamine, with UDP-α-D-N-Acetylglucosamine Disodium Salt as the internal standard. Mobile phase A: 90% water-10% acetonitrile containing 10 mM ammonium acetate; B: acetonitrile.
Reaction system: Corresponding solutions were prepared as per the table below, and placed in a 37°C metal bath, and mixed at 300 rpm for 10 minutes. After mixing for 10 minutes, 10 µl of 250 µM substrate was added to each group to initiate the reaction, and placed in a 37°C metal bath and reacted at 300 rpm for 30 minutes.
Termination solution: 1.1 µL of 1 mM internal standard was added to 2 mL of acetonitrile. 1.5 mL of EP tubes were taken and 100 µL of termination solution was added to each EP tube. The concentration of the internal standard in the final 350 µL system is 100 ng/mL.
Detection: 10 µL of reaction solution was added to 100 µL of the termination solution in an EP tube, mixed thoroughly, and then 240 µL of distilled water was added and mixed well, centrifuged at 14,000 rpm for 5 minutes. 70 µL of supernatant was transferred to an LC-MS vial and API 6500 Qtrap LC-MS system was used to measure substrates and metabolites. The median inhibition concentrations (IC50) of the four optical isomers and ACHN-975 against rLpxC enzyme were calculated. Table 4 Inhibitory activity of 4 optical isomers and control drug against recombinant Escherichia coli LpxC enzyme

[3] = Chlorocebus sabaeus, Vero, 24 h
[4] = Chlorocebus sabaeus, Vero cells, 24 hours incubation, CCK-8, read-out: IC50
[5] = Enterobacter cloacae CDC1000654 (NDM-1-producing), agar dilution, 35°C, 18 hours, read-out: MIC

Row | SMILES | effective dose of in vivo antibacterial activity [1] | Animal survival rate ([1]; dose 1.4 mg/kg) | IC50 (Vero cells; [3]) | MIC (Enterobacter cloacae; Enterobacter cloacae, 18 h) | IC50 [2] | Animal survival rate ([1]; dose 0.35 mg/kg) | Number of surviving animals ([1]; dose 0.35 mg/kg) | IC50 (Vero cells; [4]) | MIC (Enterobacter cloacae; [5]) | Animal survival rate ([1]; dose 1.5 mg/kg) | Number of surviving animals ([1]; dose 1.5 mg/kg) | Animal survival rate ([1]; dose 3 mg/kg) | Number of surviving animals ([1]; dose 3 mg/kg) | Animal survival rate ([1]; dose 6 mg/kg) | Number of surviving animals ([1]; dose 6 mg/kg) | Animal survival rate ([1]; dose 0.7 mg/kg) | Number of surviving animals ([1]; dose 0.7 mg/kg) | Number of surviving animals ([1]; dose 1.4 mg/kg) | IC50 (Vero cells; Vero cells, 24 hours incubation, CCK-8, read-out: IC50) | MIC (Enterobacter cloacae; Enterobacter cloacae CDC1000654 (NDM-1-producing), agar dilution, 35°C, 18 hours)
1 | COC[C@H]1C[C@@H]1C#CC#Cc1ccc(C(=O)N[C@H](C(=O)NO)C(C)(C)N)cc1 [Ib, N-(S)-3-amino-1-hydroxyamino-3-methyl-1-oxobutan-2-yl-4-[[(1S,2S)-2-(methoxymethylene)cyclopropyl]but-1,3-diynyl]benzamide] | below 1.5 mg/kg | 60% | > 128000 nM | 2 µg/mL (≈ 5.22 µM) | 0.857 nM |  |  |  |  |  |  |  |  |  |  |  |  |  |  | 
2 | COC[C@H]1C[C@H]1C#CC#Cc1ccc(C(=O)N[C@H](C(=O)NO)C(C)(C)N)cc1 [Ic, N-(S)-3-amino-1-hydroxyamino-3-methyl-1-oxobutan-2-yl-4-[[(1R,2S)-2-(methoxymethylene)cyclopropyl]but-1,3-diynyl]benzamide] | below 1.5 mg/kg | 80% |  |  | 0.905 nM | 0% | 0 individuals | > 128000 nM | 1 µg/mL (≈ 2.61 µM) |  |  |  |  |  |  |  |  |  |  | 
3 | CO[C@H]1CCC[C@@H]1C#CC#Cc1ccc(C(=O)N[C@H](C(=O)NO)C(C)(C)N)cc1 [A] | > 3 mg/kg |  |  |  | 4.68 nM |  |  | > 64000 nM | 4 µg/mL (≈ 10.1 µM) | 0% | 0 individuals | 0% | 0 individuals | 20% | 1 individuals |  |  |  |  | 
4 | COC[C@@H]1C[C@@H]1C#CC#Cc1ccc(C(=O)N[C@H](C(=O)NO)C(C)(C)N)cc1 [Id, N-(S)-3-amino-1-hydroxyamino-3-methyl-1-oxobutan-2-yl-4-[[(1S,2R)-2-(methoxymethylene)cyclopropyl]but-1,3-diynyl]benzamide] | below 1.5 mg/kg | 60% |  |  | 0.892 nM | 0% | 0 individuals | > 128000 nM | 1 µg/mL (≈ 2.61 µM) |  |  |  |  |  |  | 0% | 0 individuals | 3 individuals |  | 
5 | CC(C)(N)[C@H](NC(=O)c1ccc(C#CC#C[C@@H]2C[C@H]2CO)cc1)C(=O)NO [ACHN-975] | > 1.5 mg/kg |  | > 128000 nM | 4 µg/mL (≈ 10.8 µM) | 1.07 nM |  |  |  |  | 0% | 0 individuals | 60% | 3 individuals | 100% | 5 individuals |  |  |  |  | 
6 | COC[C@@H]1C[C@H]1C#CC#Cc1ccc(C(=O)N[C@H](C(=O)NO)C(C)(C)N)cc1 [Ia, N-(S)-3-amino-1-hydroxyamino-3-methyl-1-oxobutan-2-yl-4-[[(1R,2R)-2-(methoxymethylene)cyclopropyl]but-1,3-diynyl]benzamide] | below 1.5 mg/kg | 80% |  |  | 1.07 nM | 0% | 0 individuals | > 128000 nM | 1 µg/mL (≈ 2.61 µM) |  |  |  |  |  |  |  |  | 4 individuals |  | 
7 | COCC1CC1C#CC#Cc1ccc(C(=O)NC(C(=O)NO)C(C)(C)N)cc1 (mixture of isomers) [Ia/Ib racemate] | below 1.5 mg/kg | 40% |  |  | 1.03 nM | 0% | 0 individuals |  |  |  |  |  |  |  |  | 0% | 0 individuals | 2 individuals | > 128000 nM | 2 µg/mL
